Some test systems named below: HL-60(TB) leukemia; MALME-3M melanoma; K-562 leukemia; SK-OV-3 ovarian; SW-620 colon; SK-MEL-2 melanoma; DU-145 prostate; IGROV1 ovarian; RXF 393 renal; LOX IMVI melanoma.
Common to all, as to experiment: inhibition of tumour cell growth, NCI panel, 48 h

“And” between values parts separate entries of the source, which are not always exact repeats. Equal entries are not always repeated.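 These data come from cells grown in 96-well plates and exposed to compound for 48 hours at five concentrations. The concentration for 50% growth inhibition is given as GI50. TGI marks complete inhibition of growth.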

For `C=C1C(=O)O[C@H]2[C@H]1CC/C(Cn1cc(-c3ccccc3C(F)(F)F)nn1)=C\CC[C@@]1(C)O[C@@H]21`, the GI50 with HL-60(TB) leukemia is 2.58 µM; in the test with MALME-3M melanoma it was 1.7 µM; in the test on K-562 leukemia it was 2.4 µM; in the test on SK-OV-3 ovarian, 17.3 µM; with SW-620 colon, 1.24 µM; in the test on SK-MEL-2 melanoma, 2.45 µM. Moreover, the GI50 with DU-145 prostate was 1.42 µM; in the test with IGROV1 ovarian, 1.81 µM; in the test with RXF 393 renal, 1.07 µM; in the test with LOX IMVI melanoma, 1.11 µM. For the same molecule, the TGI in the test with HL-60(TB) leukemia stood at 10.1 µM; in the test with MALME-3M melanoma, 3.56 µM; in the test with K-562 leukemia it was 13.1 µM; with SK-OV-3 ovarian, 31.2 µM; in the test on SW-620 colon it was 3.33 µM; in the test with SK-MEL-2 melanoma, 5.78 µM. For the same molecule, the TGI was determined as 2.78 µM with DU-145 prostate, 3.86 µM in the test on IGROV1 ovarian, 2.32 µM with RXF 393 renal and 2.35 µM with LOX IMVI melanoma.
Consider `COc1ccc2c(c1)C(=O)c1c-2n(CCCI)c(=O)c2cc([N+](=O)[O-])ccc12`, for which the GI50 in the test on HL-60(TB) leukemia was 0.167 µM and 0.0526 µM; with MALME-3M melanoma, 1.36 µM and 2.85 µM; in the test with K-562 leukemia, 0.0596 µM and 0.19 µM; in the test on SK-OV-3 ovarian it was 0.23 µM and 0.48 µM; in the test on SW-620 colon, 0.0524 µM and 0.0345 µM; in the test on SK-MEL-2 melanoma, 8.01 µM and 16.4 µM. Besides, the GI50 in the test with DU-145 prostate is 0.0541 µM and 0.0341 µM; in the test with RXF 393 renal, 0.319 µM and 0.789 µM; in the test with LOX IMVI melanoma, 0.0743 µM and 0.0432 µM. Besides, the TGI is 2.26 µM and 0.822 µM in the test with HL-60(TB) leukemia; 18.4 µM and 43.3 µM in the test on MALME-3M melanoma; 50 µM and > 100 µM in the test on K-562 leukemia; 7.91 µM and 15.6 µM with SW-620 colon; 47.2 µM and > 100 µM in the test on SK-MEL-2 melanoma; 0.172 µM and 0.811 µM with DU-145 prostate. The TGI is 50 µM and 72.3 µM in the test with IGROV1 ovarian; 3.57 µM and 13.8 µM with RXF 393 renal; 0.763 µM and 1.01 µM with LOX IMVI melanoma.
For the molecule `CC(=O)OCc1cc2ccccc2nc1C(Br)(Br)Br`, the TGI with HL-60(TB) leukemia is 40.9 µM; in the test on MALME-3M melanoma it was 18.1 µM; with K-562 leukemia it was 45.4 µM; in the test on SK-OV-3 ovarian, 86.6 µM; in the test with SW-620 colon it was 44.8 µM; in the test with SK-MEL-2 melanoma it was 41.9 µM. Moreover, the TGI in the test with DU-145 prostate was 23.9 µM; with IGROV1 ovarian, 25.7 µM; in the test with RXF 393 renal it was 33.4 µM; in the test with LOX IMVI melanoma, 29.2 µM.
In the case of `O=C1C(Cl)=C(NCc2ccco2)C(=O)c2ccccc21`, the GI50 is 7.63 µM in the test on HL-60(TB) leukemia; 2.03 µM in the test on MALME-3M melanoma; 4.55 µM in the test with K-562 leukemia; 40.3 µM with SK-OV-3 ovarian; 18.3 µM in the test on SW-620 colon; 35 µM in the test with SK-MEL-2 melanoma. Also, the GI50 with DU-145 prostate is 2.6 µM; in the test with IGROV1 ovarian, 10.9 µM; with RXF 393 renal, 21.6 µM; in the test on LOX IMVI melanoma, 7.1 µM. Also, the TGI is greater than 76.9 µM in the test with HL-60(TB) leukemia; 4.37 µM with MALME-3M melanoma; greater than 100 µM in the test with K-562 leukemia; greater than 100 µM with SK-OV-3 ovarian; greater than 100 µM with SW-620 colon; greater than 100 µM with SK-MEL-2 melanoma. Further, the TGI in the test on DU-145 prostate is 6.27 µM; in the test on IGROV1 ovarian, 44 µM; in the test with RXF 393 renal, 50.6 µM; with LOX IMVI melanoma, 72.7 µM.
Take `O=C(OC[C@H]1O[C@H](OC(=O)c2cc(O)c(O)c(OC(=O)c3cc(O)c(O)c(O)c3)c2)[C@H](OC(=O)c2cc(O)c(O)c(OC(=O)c3cc(O)c(O)c(O)c3)c2)[C@@H](OC(=O)c2cc(O)c(O)c(OC(=O)c3cc(O)c(O)c(O)c3)c2)[C@@H]1OC(=O)c1cc(O)c(O)c(OC(=O)c2cc(O)c(O)c(O)c2)c1)c1cc(O)c(O)c(OC(=O)c2cc(O)c(O)c(O)c2)c1`: the GI50 in the test on HL-60(TB) leukemia is 7.53 µM; in the test with MALME-3M melanoma, 7.42 µM; with K-562 leukemia, 9.63 µM; with SK-OV-3 ovarian it was 2.25 µM; with SW-620 colon it was 5.48 µM; in the test on SK-MEL-2 melanoma it was 9.02 µM. The GI50 in the test with DU-145 prostate is 3.57 µM; with IGROV1 ovarian, 3.69 µM; in the test on RXF 393 renal, 1.2 µM; with LOX IMVI melanoma it was 1.24 µM. For the same molecule, the TGI was 23.5 µM in the test with HL-60(TB) leukemia; greater than 25 µM with MALME-3M melanoma; greater than 25 µM with K-562 leukemia; greater than 25 µM in the test with SK-OV-3 ovarian; greater than 25 µM with SW-620 colon; greater than 25 µM in the test with SK-MEL-2 melanoma. For the same molecule, the TGI in the test with DU-145 prostate is greater than 25 µM; in the test on IGROV1 ovarian, greater than 25 µM; with RXF 393 renal, 7.48 µM; in the test on LOX IMVI melanoma, greater than 25 µM.
Take `O=C1c2ccccc2S(=O)(=O)c2cc(-c3nn[nH]n3)ccc21`: the TGI in the test on HL-60(TB) leukemia, with MALME-3M melanoma, with K-562 leukemia, in the test with SK-OV-3 ovarian, with SW-620 colon and with SK-MEL-2 melanoma was greater than 100 µM each time. Moreover, the TGI in the test with DU-145 prostate, in the test on IGROV1 ovarian, in the test with RXF 393 renal and in the test on LOX IMVI melanoma was greater than 100 µM throughout.
Turning to `NCCCNCCCCNC(=O)C(O)NC(=O)CCCCCCN=C(N)N` (stereo not drawn), the GI50 was 2500 µM with HL-60(TB) leukemia; 1920 µM with MALME-3M melanoma; 805 µM with K-562 leukemia; greater than 5000 µM in the test with SK-OV-3 ovarian; 1900 µM with SW-620 colon; 2040 µM with SK-MEL-2 melanoma. In addition, the GI50 with DU-145 prostate was 2890 µM; in the test on IGROV1 ovarian, 2620 µM; in the test on RXF 393 renal, 3480 µM; with LOX IMVI melanoma it was 828 µM. Further, the TGI in the test on HL-60(TB) leukemia was greater than 4090 µM; with MALME-3M melanoma, 628 µM and 3050 µM; in the test on K-562 leukemia, 750 µM and > 3610 µM; in the test on SK-OV-3 ovarian, greater than 5000 µM; with SW-620 colon, greater than 5000 µM; in the test on SK-MEL-2 melanoma, 750 µM and 3420 µM. The TGI was greater than 5000 µM with DU-145 prostate; 750 µM and > 5000 µM in the test on IGROV1 ovarian; 750 µM and > 5000 µM with RXF 393 renal; 750 µM and 1570 µM in the test on LOX IMVI melanoma.

Source of the values: PubChem BioAssay (NCI).
